Starred links: 1 amine or outer side, 2 acyl side, 3 side chain; linkers in the order of their positions; H or OH if unused. Positions of bridges follow the written chain, without caps; N, C: chain ends. Non-standard residues stand in square brackets, D forms with d. Residues, ends and D or L forms follow the SMILES beside them. *: point of attachment. X3 = C[C@H](c1ccc2ccccc2c1)[C@H](N[*:1])C(=O)[*:2]; Phe(3,4-(OMe)2) = COc1ccc(C[C@H](N)C(=O)O)cc1OC; Trp(7-Me) = Cc1cccc2c(C[C@H](N)C(=O)O)c[nH]c12; Phe(3R-Me) = C[C@H](c1ccccc1)[C@H](N)C(=O)O; Abu(4-yl) = O=C([C@H](CC[*:3])N[*:1])[*:2]; dPhe(4-NH2) = Nc1ccc(C[C@@H](N)C(=O)O)cc1; 2Nal = N[C@@H](Cc1ccc2ccccc2c1)C(=O)O; AEF = NCCOc1ccc(C[C@H](N)C(=O)O)cc1; αMeF = C[C@](N)(Cc1ccccc1)C(=O)O; αMeE = C[C@](N)(CCC(=O)O)C(=O)O; Cit = NC(=O)NCCC[C@H](N)C(=O)O; αMeL = CC(C)C[C@](C)(N)C(=O)O; Pen = CC(C)(S)[C@H](N)C(=O)O; Ac5c = NC1(C(=O)O)CCCC1; Thp = NC1(C(=O)O)CCOCC1; Ac3c = NC1(C(=O)O)CC1; Propionyl = CCC(=O)*
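Note: cryopreserved PBMCs stimulated at 37 °C in 5% CO2, then lysed, with phosphorylated STAT3 quantified in lysates using a phospho-STAT panel kit.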

For the experiment, the target named is IL-23R (Homo sapiens, UniProt Q5VWK5). Put plainly: cell-based. To be noted: PBMC pSTAT3 IC50 (nM), PBMCs from healthy donors, IL-23 5 ng/mL, 30 minutes, phosphorylated STAT3.
IL-23R, sequence (Q5VWK5 24-629): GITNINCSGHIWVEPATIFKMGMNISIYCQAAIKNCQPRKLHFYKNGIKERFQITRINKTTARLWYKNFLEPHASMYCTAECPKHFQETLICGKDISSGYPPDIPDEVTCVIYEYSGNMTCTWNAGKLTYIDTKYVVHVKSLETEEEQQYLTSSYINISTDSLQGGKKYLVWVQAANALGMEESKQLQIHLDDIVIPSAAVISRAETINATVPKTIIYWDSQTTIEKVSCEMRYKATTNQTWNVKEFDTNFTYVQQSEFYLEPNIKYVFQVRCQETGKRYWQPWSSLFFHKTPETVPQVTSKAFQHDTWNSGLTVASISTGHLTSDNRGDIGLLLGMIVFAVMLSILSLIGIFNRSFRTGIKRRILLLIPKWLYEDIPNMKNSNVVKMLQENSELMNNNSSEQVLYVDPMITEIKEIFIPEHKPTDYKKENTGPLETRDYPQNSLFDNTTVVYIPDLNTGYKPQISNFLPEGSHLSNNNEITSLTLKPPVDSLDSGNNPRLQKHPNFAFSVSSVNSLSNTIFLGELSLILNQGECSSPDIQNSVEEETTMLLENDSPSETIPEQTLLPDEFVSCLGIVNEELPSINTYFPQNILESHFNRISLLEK
Protocol: Cryopreserved peripheral blood mononuclear cells (PBMCs) from healthy donors were thawed and washed twice in ImmunoCult-XF T cell expansion medium (XF-TCEM) supplemented with CTL anti-aggregate wash. […] The cells were stimulated with cytokine for 30 minutes at 37° C. in 5% CO2, transferred onto ice for 10 minutes, and lysed. Cell lysates were stored at −80° C. until phosphorylated STAT3 was measured using the phospho-STAT panel kit (Meso Scale Discovery, K15202D).
On to `C[C@@H](O)[C@@H]1NC(=O)[C@H](CCC(N)=O)NC(=O)[C@@H](NC(=O)[C@H](N)CCCNC(=N)N)CCSC[C@@H](C(=O)N[C@@H](Cc2ccc(OCCNC(=O)OC(C)(C)C)cc2)C(=O)N[C@@H](Cc2ccc3ccccc3c2)C(=O)NC2(C(=O)N[C@@H](CCC(=O)O)C(=O)N[C@@H](CC(N)=O)C(=O)NC3(C(N)=O)CCOCC3)CCOCC2)NC(=O)[C@H](CCC(N)=O)NC(=O)[C@H](Cc2c[nH]c3ccccc23)NC1=O` [Compound 47, [(D)Arg]-[Abu]-Q-T-W-Q-[Cys]-Phe[4-(2-(Boc)aminoethoxy)]-[2-Nal]-[THP]-E-N-[THP]-NH2], for which the IC50 amounted to 5.3 nM. Next, `CC(=O)NCCCC[C@@H]1NC(=O)[C@H](Cc2c[nH]c3c(C)cccc23)NC(=O)[C@H]([C@@H](C)O)NC(=O)[C@H](CC(N)=O)NC(=O)[C@@H](N)C(C)(C)SSC(C)(C)[C@@H](C(=O)N[C@@H](Cc2ccc(OCCNC(=O)OC(C)(C)C)cc2)C(=O)N[C@@H](Cc2ccc3ccccc3c2)C(=O)N[C@@](C)(CCCCNC(=O)OC(C)(C)C)C(=O)N[C@@H](CCCCNC(C)=O)C(=O)N[C@@H](CC(N)=O)C(=O)N[C@@](C)(Cc2ccccc2)C(N)=O)NC1=O` [Compound 304, NH2--Pen-N-T-7MeW-K(Ac)-Pen-AEF(Boc)-2Nal-aMeK(Boc)-K(Ac)-N-aMePhe-CONH2]: 28 nM; `CC(=O)N[C@H](CCCNC(=N)N)C(=O)N[C@H]1CCSC[C@@H](C(=O)N[C@@H](Cc2ccc(OCCN)cc2)C(=O)N[C@@H](Cc2ccc3ccccc3c2)C(=O)NC2(C(=O)N[C@@](C)(CCC(=O)O)C(=O)N[C@@H](CC(N)=O)C(=O)N[C@@](C)(Cc3ccc(O)cc3)C(N)=O)CCOCC2)NC(=O)[C@H](CCC(N)=O)NC(=O)[C@H](Cc2c[nH]c3ccccc23)NC(=O)[C@H]([C@@H](C)O)NC(=O)[C@H](CCC(N)=O)NC1=O` [Compound 44, Ac-[(D)Arg]-[Abu]-Q-T-W-Q-[Cys]-Phe[4-(2-aminoethoxy)]-[2-Nal]-[THP]-[aMeGlu]-N-[aMeTyr]-NH2]: 9.3 nM. Turning to `CC(=O)NCCCC[C@@H]1NC(=O)[C@H](Cc2c[nH]c3ccccc23)NC(=O)[C@H]([C@@H](C)O)NC(=O)[C@H](CC(N)=O)NC(=O)[C@@H](NC(C)=O)CSSC[C@@](C)(C(=O)N[C@@H](Cc2ccc(OCCN)cc2)C(=O)N[C@@H](Cc2ccc3ccccc3c2)C(=O)N[C@@](C)(CCCCN)C(=O)N[C@@H](CCCCNC(C)=O)C(=O)N[C@@H](CC(N)=O)C(=O)N[C@@](C)(Cc2ccccc2)C(N)=O)NC1=O` [Compound 122, Ac-[Cys]-N-T-W-[Lys(Ac)]-[aMeCys]-Phe[4-(2-aminoethoxy)]-[2-Nal]-[a-MeLys]-[Lys(Ac)]-N-[a-MePhe]-NH2], the midpoint of inhibition, the IC50, lay at 54 nM. This IC50 is about 5.8-fold higher than that of the compound before.

In the case of `CC(=O)N[C@H](CCCNC(=N)N)C(=O)N[C@H]1CCSC[C@@H](C(=O)N[C@@H](Cc2ccc(OCCN)cc2)C(=O)N[C@@H](Cc2ccc3ccccc3c2)C(=O)NC2(C(=O)N[C@@H](CCC(=O)O)C(=O)N[C@@H](CC(N)=O)C(=O)N[C@@](C)(Cc3ccccc3)C(N)=O)CCOCC2)NC(=O)[C@H](CCC(N)=O)NC(=O)[C@H](Cc2c[nH]c3ccccc23)NC(=O)[C@H]([C@@H](C)O)NC(=O)[C@H](CCC(N)=O)NC1=O` [Compound 123, Ac-[(D)Arg]-[Abu]-Q-T-W-Q-[Cys]-Phe[4-(2-aminoethoxy)]-[2-Nal]-[THP]-E-N-[a-MePhe]-NH2], the 50% inhibitory concentration (IC50) amounted to 11 nM. Regarding `CC(=O)NCCCC[C@@H]1NC(=O)[C@H](Cc2c[nH]c3c(C)cccc23)NC(=O)[C@H]([C@@H](C)O)NC(=O)[C@H](CC(N)=O)NC(=O)[C@@H](NC(=O)[C@@H](CCCNC(=N)N)NC(C)=O)C(C)(C)SSC(C)(C)[C@@H](C(=O)N[C@@H](Cc2ccc(OCCN)cc2)C(=O)N[C@@H](Cc2ccc3ccccc3c2)C(=O)NC2(C(=O)N[C@@H](CCC(=O)O)C(=O)N[C@@H](CC(N)=O)C(=O)N[C@H](C(N)=O)[C@H](C)c3ccccc3)CCOCC2)NC1=O` [Compound 313, MeCO-r-Pen-N-T-7MeTrp-K(Ac)-Pen-AEF-2Nal-THP-E-N-bMePhe(S,R)---CONH2] (Ac-[dR][Pen]NT[Trp(7-Me)]K(Ac)[Pen][AEF][2Nal][Thp]EN[Phe(3R-Me)]-NH2; disulfide 2-7), inhibition was half-maximal at 21 nM (IC50). This IC50 is about 1.9-fold higher than that of the compound before.

`CC(=O)NCCCC[C@@H]1NC(=O)[C@H](Cc2c[nH]c3c(C)cccc23)NC(=O)[C@H]([C@@H](C)O)NC(=O)[C@H](CC(N)=O)NC(=O)[C@@H](NC(=O)[C@@H](CCCNC(=N)N)NC(C)=O)C(C)(C)SSC(C)(C)[C@@H](C(=O)N[C@@H](Cc2ccc(OCCN)cc2)C(=O)N[C@@H](Cc2ccc3ccccc3c2)C(=O)NC2(C(=O)N[C@@H](CCC(=O)O)C(=O)N[C@@H](CC(N)=O)C(=O)N[C@@H](Cc3c[nH]cn3)C(=O)N[C@H](Cc3ccc(N)cc3)C(N)=O)CC2)NC1=O` [Compound 315, MeCO-r-Pen-N-T-7MeW-K(Ac)-Pen-AEF-2Nal-Acpx-E-N-H-4AmDPhe---CONH2] (Ac-[dR][Pen]NT[Trp(7-Me)]K(Ac)[Pen][AEF][2Nal][Ac3c]ENH[dPhe(4-NH2)]-NH2; disulfide 2-7) yielded an IC50 of 2 nM. This IC50 lies about 10-fold lower than the previous one. In turn, `CCC(=O)N[C@H](CCCNC(=N)N)C(=O)N[C@@H]1C(=O)N[C@@H](CCC(N)=O)C(=O)N[C@@H]([C@@H](C)O)C(=O)N[C@@H](Cc2c[nH]c3ccccc23)C(=O)N[C@@H](CCC(N)=O)C(=O)N[C@H](C(=O)N[C@@H](Cc2ccc(OCCN)cc2)C(=O)N[C@@H](Cc2ccc3ccccc3c2)C(=O)NC2(C(=O)N[C@@H](CCCCNC(=O)C(C)(C)C)C(=O)N[C@@H](CC(N)=O)C(=O)NC3(C(N)=O)CCOCC3)CCOCC2)C(C)(C)SSC1(C)C` [Compound 7, [Propionic_acid]-[(D)Arg]-[Pen]-Q-T-W-Q-[Pen]-Phe[4-(2-aminoethoxy)]-[2-Nal]-[THP]-[Lys(COtBu)]-N-[THP]-NH2] had a half-maximal inhibitory concentration (IC50) of 8.6 nM. Against the preceding compound, the IC50 is about 4.3-fold higher. Next, `CCC(=O)N[C@H](CCCNC(=N)N)C(=O)N[C@@H]1C(=O)N[C@@H](CCC(N)=O)C(=O)N[C@@H]([C@@H](C)O)C(=O)N[C@@H](Cc2c[nH]c3ccccc23)C(=O)N[C@@H](CCC(N)=O)C(=O)N[C@H](C(=O)N[C@@H](Cc2ccc(OCCN)cc2)C(=O)N[C@H](C(=O)NC2(C(=O)N[C@@H](CCC(=O)O)C(=O)N[C@@H](CC(N)=O)C(=O)NC3(C(N)=O)CCOCC3)CCOCC2)[C@H](C)c2ccc3ccccc3c2)C(C)(C)SSC1(C)C` [Compound 307, EtCO-r-Pen-Q-T-W-Q-Pen-AEF-bMe2Nal(2S,3R)-THP-E-N-THP---CONH2] (Propionyl-[dR][Pen]QTWQ[Pen][AEF][X3][Thp]EN[Thp]-NH2; disulfide 2-7): 52 nM. Turning to `CC(=O)N[C@H](CCCNC(=N)N)C(=O)N[C@@H]1C(=O)N[C@@H](CC(N)=O)C(=O)N[C@@H]([C@@H](C)O)C(=O)N[C@@H](Cc2c[nH]c3c(C)cccc23)C(=O)N[C@@H](CCC(N)=O)C(=O)N[C@H](C(=O)N[C@@H](Cc2ccc(OCCN)cc2)C(=O)N[C@@H](Cc2ccc3ccccc3c2)C(=O)NC2(C(=O)N[C@@H](CCC(=O)O)C(=O)N[C@@H](CC(N)=O)C(=O)N[C@@](C)(Cc3ccccc3)C(N)=O)CCCC2)C(C)(C)SSC1(C)C` [Compound 93, Ac-[(D)Arg]-[Pen]-N-T-[W(7-Me)]-Q-[Pen]-Phe[4-(2-aminoethoxy)]-[2-Nal]-[Acvc]-E-N-[a-MePhe]-NH2] (Ac-[dR][Pen]NT[Trp(7-Me)]Q[Pen][AEF][2Nal][Ac5c]EN[αMeF]-NH2; disulfide 2-7), the midpoint of inhibition, the IC50, lay at 4.6 nM. On to `CC(=O)NCCCC[C@H](NC(=O)[C@](C)(CC(C)C)NC(=O)[C@H](Cc1ccc2ccccc2c1)NC(=O)[C@H](Cc1ccc(OCCN)cc1)NC(=O)[C@H]1NC(=O)[C@H](CCCNC(N)=O)NC(=O)[C@H](Cc2c[nH]c3c(C)cccc23)NC(=O)[C@H]([C@@H](C)O)NC(=O)[C@H](CC(N)=O)NC(=O)[C@@H](NC(C)=O)C(C)(C)SSC1(C)C)C(=O)N[C@@H](CC(N)=O)C(=O)NC1(C(N)=O)CCOCC1` [Compound 108, Ac-[Pen]-N-T-[W(7-Me)]-[Cit]-[Pen]-Phe[4-(2-aminoethoxy)]-[2-Nal]-[aMeLeu]-[Lys(Ac)]-N-[THP]-NH2] (Ac-[Pen]NT[Trp(7-Me)][Cit][Pen][AEF][2Nal][αMeL]K(Ac)N[Thp]-NH2; disulfide 1-6), for which the IC50 is 5.1 nM. `CC(=O)NCCCC[C@@H]1NC(=O)[C@H](Cc2c[nH]c3c(C)cccc23)NC(=O)[C@H]([C@@H](C)O)NC(=O)[C@H](CC(N)=O)NC(=O)[C@@H](NC(C)=O)C(C)(C)SSC(C)(C)[C@@H](C(=O)N[C@@H](Cc2ccc(OCCN)cc2)C(=O)N[C@@H](Cc2ccc3ccccc3c2)C(=O)N[C@@](C)(CCCCN)C(=O)N[C@@H](CCCCNC(C)=O)C(=O)N[C@@H](CC(N)=O)C(=O)NC2(C(N)=O)CCOCC2)NC1=O` [Compound 75, Ac-[Pen]-N-T-[W(7-Me)]-[Lys(Ac)]-[Pen]-Phe[4-(2-aminoethoxy)]-[2-Nal]-[a-MeLys]-[Lys(Ac)]-N-[THP]-NH2] returned a concentration for half-maximal inhibition (IC50) of 8.9 nM. `COc1ccc(C[C@H](NC(=O)[C@@H]2CSCC[C@H](NC(=O)[C@@H](CCCNC(=N)N)NC(C)=O)C(=O)N[C@@H](CCC(N)=O)C(=O)N[C@@H]([C@@H](C)O)C(=O)N[C@@H](Cc3c[nH]c4ccccc34)C(=O)N[C@@H](CCC(N)=O)C(=O)N2)C(=O)N[C@@H](Cc2ccc3ccccc3c2)C(=O)NC2(C(=O)N[C@@](C)(CCC(=O)O)C(=O)N[C@@H](CC(N)=O)C(=O)N[C@@](C)(Cc3ccccc3)C(N)=O)CCOCC2)cc1OC` [Compound 41, Ac-[(D)Arg]-[Abu]-Q-T-W-Q-[Cys]-[Phe(3,4-diOMe)]-[2-Nal]-[THP]-[aMeGlu]-N-[a-MePhe]-NH2] (Ac-[dR][Abu(4-yl)]QTWQC[Phe(3,4-(OMe)2)][2Nal][Thp][αMeE]N[αMeF]-NH2; thioether 2-7) came in with a 50% inhibitory concentration (IC50) of 2500 nM. Compared with the last compound, the IC50 is about 280-fold higher. Regarding `CC(=O)NCCCC[C@@H]1NC(=O)[C@H](Cc2c[nH]c3ccccc23)NC(=O)[C@H]([C@@H](C)O)NC(=O)[C@H](CC(N)=O)NC(=O)[C@@H](NC(C)=O)C(C)(C)SSC(C)(C)[C@@H](C(=O)N[C@@H](Cc2ccc(OCCN)cc2)C(=O)N[C@@H](Cc2ccc3ccccc3c2)C(=O)N[C@@](C)(CCCCN)C(=O)N[C@@H](CCCCNC(C)=O)C(=O)N[C@@H](CC(N)=O)C(=O)NC2(C(N)=O)CCOCC2)NC1=O` [Compound 95, Ac-[Pen]-N-T-W-[Lys(Ac)]-[Pen]-Phe[4-(2-aminoethoxy)]-[2-Nal]-[a-MeLys]-[Lys(Ac)]-N-[THP]-NH2], 22 nM corresponded to half-maximal inhibition (IC50).

Values taken from patent publication US20240383954A1, “PEPTIDE INHIBITORS OF INTERLEUKIN-23 RECEPTOR AND THEIR USE TO TREAT INFLAMMATORY DISEASES” (Janssen Biotech, Inc., priority 2020, published 2024).
